According to US20070287752A1, “Ophthalmic Compositions Comprising A Branched, Glycerol Compound” (priority 2006, published 2007):

Key:
[1] = tested on: Pseudomonas aeruginosa (ATCC 9027); assay: Preservative/disinfectant system efficacy testing (log reduction); type: cell-based
Method: The ophthalmic compositions are evaluated in accordance with specific procedures outlined by the US Food & Drug Administration and the International Organization for Standardization for the testing of microbiocidal efficacy.

[2] = tested on: Gram-positive bacteria such as Micrococcus luteus, Corynebacterium aquaticum, Corynebacteriumflavescens, Corynebacterium callunae, and Corynebacterium nephredi; settings: cited from earlier work

CCCCC(CC)COCC(O)CO (stereo not drawn) [EHOPD, 3-[(2-ethylhexyl)oxy]-1,2-propanediol]
log reduction P. aeruginosa ([1]; 1 hr, Table 5A multi-purpose lens care solution, 10% organic soil, disinfectant concentrations as in label): 1.4 | log reduction P. aeruginosa ([1]; 1 hr, phosphate buffered saline, 10% organic soil, concentrations as in label (Table 4)): 1.5 | log reduction P. aeruginosa ([1]; 4 hr, Table 5A multi-purpose lens care solution, 10% organic soil, disinfectant concentrations as in label): 1.4 | log reduction P. aeruginosa ([1]; 4 hr, phosphate buffered saline, 10% organic soil, concentrations as in label (Table 4)): 1.5 | log reduction P. aeruginosa ([1]; EHOPD 0.0001 wt %, 1 hr, borate buffered saline, 10% organic soil): 1.5 | log reduction P. aeruginosa ([1]; EHOPD 0.0001 wt %, 1 hr, phosphate buffered saline, 10% Organic Soil): 1.5 | log reduction P. aeruginosa ([1]; EHOPD 0.0001 wt %, 4 hr, borate buffered saline, 10% organic soil): 1.5 | log reduction P. aeruginosa ([1]; EHOPD 0.0001 wt %, 4 hr, phosphate buffered saline, 10% Organic Soil): 1.5 | log reduction P. aeruginosa ([1]; EHOPD 0.001 wt %, 1 hr, borate buffered saline, 10% organic soil): 1.5 | log reduction P. aeruginosa ([1]; EHOPD 0.001 wt %, 1 hr, phosphate buffered saline, 10% Organic Soil): 1.5 | log reduction P. aeruginosa ([1]; EHOPD 0.001 wt %, 4 hr, borate buffered saline, 10% organic soil): 1.5 | log reduction P. aeruginosa ([1]; EHOPD 0.001 wt %, 4 hr, phosphate buffered saline, 10% Organic Soil): 1.5 | log reduction P. aeruginosa ([1]; EHOPD 0.01 wt %, 1 hr, Table 3A multi-purpose lens care formulation, 10% organic soil): 1.9 | log reduction P. aeruginosa ([1]; EHOPD 0.01 wt %, 1 hr, borate buffered saline, 10% organic soil): 2.6 | log reduction P. aeruginosa ([1]; EHOPD 0.01 wt %, 1 hr, phosphate buffered saline, 10% Organic Soil): 1.5 | log reduction P. aeruginosa ([1]; EHOPD 0.01 wt %, 4 hr, Table 3A multi-purpose lens care formulation, 10% organic soil): 1.9 | log reduction P. aeruginosa ([1]; EHOPD 0.01 wt %, 4 hr, borate buffered saline, 10% organic soil): >5.0 | log reduction P. aeruginosa ([1]; EHOPD 0.01 wt %, 4 hr, phosphate buffered saline, 10% Organic Soil): 1.5 | log reduction P. aeruginosa ([1]; EHOPD 0.1 wt %, 1 hr, Table 3A multi-purpose lens care formulation, 10% organic soil): >5.4 | log reduction P. aeruginosa ([1]; EHOPD 0.1 wt %, 1 hr, borate buffered saline, 10% organic soil): >5.0 | log reduction P. aeruginosa ([1]; EHOPD 0.1 wt %, 1 hr, phosphate buffered saline, 10% Organic Soil): 1.5 | log reduction P. aeruginosa ([1]; EHOPD 0.1 wt %, 4 hr, Table 3A multi-purpose lens care formulation, 10% organic soil): >5.4 | log reduction P. aeruginosa ([1]; EHOPD 0.1 wt %, 4 hr, borate buffered saline, 10% organic soil): >5.0 | log reduction P. aeruginosa ([1]; EHOPD 0.1 wt %, 4 hr, phosphate buffered saline, 10% Organic Soil): 3.7 | log reduction P. aeruginosa ([1]; EHOPD 0.15 wt %, 1 hr, Table 3A multi-purpose lens care formulation, 10% organic soil): >5.4 | log reduction P. aeruginosa ([1]; EHOPD 0.15 wt %, 4 hr, Table 3A multi-purpose lens care formulation, 10% organic soil): >5.4 | log reduction P. aeruginosa ([1]; EHOPD 0.25 wt %, 1 hr, Table 3A multi-purpose lens care formulation, 10% organic soil): >5.4 | log reduction P. aeruginosa ([1]; EHOPD 0.25 wt %, 4 hr, Table 3A multi-purpose lens care formulation, 10% organic soil): >5.4 | log reduction P. aeruginosa ([1]; EHOPD 0.50 wt %, 1 hr, Table 3A multi-purpose lens care formulation, 10% organic soil): >5.4 | log reduction P. aeruginosa ([1]; EHOPD 0.5 wt %, 1 hr, borate buffered saline, 10% organic soil): >5.0 | log reduction P. aeruginosa ([1]; EHOPD 0.5 wt %, 1 hr, phosphate buffered saline, 10% Organic Soil): 1.5 | log reduction P. aeruginosa ([1]; EHOPD 0.50 wt %, 4 hr, Table 3A multi-purpose lens care formulation, 10% organic soil): >5.4 | log reduction P. aeruginosa ([1]; EHOPD 0.5 wt %, 4 hr, borate buffered saline, 10% organic soil): >5.0 | log reduction P. aeruginosa ([1]; EHOPD 0.5 wt %, 4 hr, phosphate buffered saline, 10% Organic Soil): 4.1 | log reduction P. aeruginosa ([1]; EHOPD 0.75 wt %, 1 hr, Table 3A multi-purpose lens care formulation, 10% organic soil): >5.4 | log reduction P. aeruginosa ([1]; EHOPD 0.75 wt %, 4 hr, Table 3A multi-purpose lens care formulation, 10% organic soil): >5.4 | log reduction P. aeruginosa ([1]; EHOPD 1.0 wt %, 1 hr, Table 3A multi-purpose lens care formulation, 10% organic soil): >5.4 | log reduction P. aeruginosa ([1]; EHOPD 1.0 wt %, 4 hr, Table 3A multi-purpose lens care formulation, 10% organic soil): >5.4 | antimicrobial activity (known, in words) [2]: exhibit antimicrobial activity against a variety of Gram-positive bacteria
